What was measured:
oval-leafed pondweed = test: Test Example 2: herbicidal activity, application during weed generation under submerged conditions (Table 17, symbol C); type: in vivo, oval-leafed pondweed (Monochoria vaginalis); details: application during weed generation, submerged conditions
How it was run: (§1)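 Steps: fill Wagner pots with alluvial soil; add water to give 4 cm depth; sow the species mixed; grow under glass at 25–30° C.; at 1–2 leaves apply water-diluted emulsion formulation to the water surface at a fixed herbicide amount; score after 3 weeks.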

barnyard grass [1] = test: Test Example 3: herbicidal effect by foliage application, Wagner pot (Table 18, symbol H); type: in vivo, barnyard grass (Echinochloa crus-galli)
How it was run: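 Plants were sown in alluvial soil held under 0.1–0.5 cm standing water and grown 14 days in a greenhouse at 25–30 °C. An emulsifiable formulation, water-diluted to the set dose, was then sprayed onto the foliage, and effects were scored three weeks later using previously defined criteria.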

late watergrass [2] = test: Test Example 2: herbicidal activity, application during weed generation under submerged conditions (Table 17, symbol A); type: in vivo, late watergrass (Echinochloa oryzicola); details: application during weed generation, submerged conditions
How it was run: as §1

wild oat = test: Test Example 5: herbicidal effect by foliage application, plastic box (Table 20, symbol I); type: in vivo, wild oat (Avena fatua); details: foliage application, three weeks after application
How it was run: (§2)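 Foliar spray test: emulsion formulation diluted in water to a set application rate, sprayed onto 14-day-old plants raised in diluvial soil at 25° C to 30° C under glass. Both herbicidal effect and crop effect rated visually three weeks later.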

blackgrass = test: Test Example 4: herbicidal effect by soil treatment (Table 19, symbol J); type: in vivo, blackgrass (Alopecurus myosuroides)
How it was run: (§3)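 Herbicidal effect was rated 3 weeks after treatment, using the scoring criteria of an earlier test. The compound, formulated as an emulsion and diluted in water to a set herbicide amount, had been sprayed uniformly on soil over freshly sown seeds. Growth took place in a greenhouse at 25° C. to 30° C.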

lambsquarters = test: Test Example 5: herbicidal effect by foliage application, plastic box (Table 20, symbol O); type: in vivo, lambsquarters (Chenopodium album); details: foliage application, three weeks after application
How it was run: as §2

false cleavers = test: Test Example 4: herbicidal effect by soil treatment (Table 19, symbol Q); type: in vivo, false cleavers (Galium spurium)
How it was run: as §3

barnyard grass [3] = test: Test Example 4: herbicidal effect by soil treatment (Table 19, symbol H); type: in vivo, barnyard grass (Echinochloa crus-galli)
How it was run: as §3

redroot pigweed = test: Test Example 5: herbicidal effect by foliage application, plastic box (Table 20, symbol N); type: in vivo, redroot pigweed (Amaranthus retroflexus); details: foliage application, three weeks after application
How it was run: as §2

green foxtail = test: Test Example 5: herbicidal effect by foliage application, plastic box (Table 20, symbol G); type: in vivo, green foxtail (Setaria viridis); details: foliage application, three weeks after application
How it was run: as §2

chickweed = test: Test Example 4: herbicidal effect by soil treatment (Table 19, symbol P); type: in vivo, common chickweed (Stellaria media)
How it was run: as §3

southern crabgrass [4] = test: Test Example 4: herbicidal effect by soil treatment (Table 19, symbol F); type: in vivo, southern crabgrass (Digitaria ciliaris)
How it was run: as §3

windgrass = test: Test Example 5: herbicidal effect by foliage application, plastic box (Table 20, symbol L); type: in vivo, windgrass (Apera spica-venti); details: foliage application, three weeks after application
How it was run: as §2

late watergrass [5] = test: Test Example 1: herbicidal activity, application before weed generation under submerged conditions (Table 16, symbol A); type: in vivo, late watergrass (Echinochloa oryzicola)
How it was run: (§4)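 Emulsion formulation, water-diluted to set dose, was put onto the flooded surface (4 cm depth, alluvial soil) the same day weeds were sown and 2.5-leaf rice transplanted. After 3 weeks at 25-30 °C under glass, each species was rated 0 (≤5% kill) to 5 (≥90% kill).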

persian speedwell = test: Test Example 5: herbicidal effect by foliage application, plastic box (Table 20, symbol R); type: in vivo, Persian speedwell (Veronica persica); details: foliage application, three weeks after application
How it was run: as §2

Japanese bulrush = test: Test Example 1: herbicidal activity, application before weed generation under submerged conditions (Table 16, symbol B); type: in vivo, Japanese bulrush (Schoenoplectus juncoides)
How it was run: as §4

southern crabgrass [6] = test: Test Example 5: herbicidal effect by foliage application, plastic box (Table 20, symbol F); type: in vivo, southern crabgrass (Digitaria ciliaris); details: foliage application, three weeks after application
How it was run: as §2

[7] = amount of applied herbicide 320 g/ha
[8] = amount of applied herbicide 224 g/ha
[9] = amount of applied herbicide 304 g/ha

Compound: CCCC(=O)Oc1c(C)nn(C)c(=O)c1-c1c(-c2ccccc2OCC)sc2cc(F)ccc12 [3-007]
- herbicidal effect rating, C: oval-leafed pondweed (oval-leafed pondweed; AAH 320 g/ha): 4 (Herbicidal rate of 70% or more and less than 90%)
- herbicidal effect on H: barnyard grass (barnyard grass [1]; [7]): 5 (Herbicidal rate of 90% or more (almost completely withered))
- herbicidal effect rating, A: late watergrass (late watergrass [2]; AAH 320 g/ha): 3 (Herbicidal rate of 40% or more and less than 70%)
- I: wild oat, herbicidal effect grade (wild oat; 320 g/ha): 5 (Herbicidal rate of 90% or more (almost completely withered))
- herbicidal effect, J: blackgrass (blackgrass; [7]): 3 (Herbicidal rate of 40% or more and less than 70%)
- O: lambsquarters, herbicidal effect grade (lambsquarters; 320 g/ha): 5 (Herbicidal rate of 90% or more (almost completely withered))
- herbicidal effect, Q: false cleavers (false cleavers; [7]): 5 (Herbicidal rate of 90% or more (almost completely withered))
- herbicidal effect, H: barnyard grass (barnyard grass [3]; [7]): 0 (Herbicidal rate of 5% or less (almost no effect))
- N: redroot pigweed, herbicidal effect grade (redroot pigweed; 320 g/ha): 5 (Herbicidal rate of 90% or more (almost completely withered))
- G: green foxtail, herbicidal effect grade (green foxtail; 320 g/ha): 5 (Herbicidal rate of 90% or more (almost completely withered))
- herbicidal effect, P: chickweed (chickweed; [7]): 5 (Herbicidal rate of 90% or more (almost completely withered))
- herbicidal effect, F: southern crabgrass (southern crabgrass [4]; [7]): 4 (Herbicidal rate of 70% or more and less than 90%)
- L: windgrass, herbicidal effect grade (windgrass; 320 g/ha): 5 (Herbicidal rate of 90% or more (almost completely withered))
- Herbicidal effect, A: late watergrass (late watergrass [5]; [7]): 5 (Herbicidal rate of 90% or more (almost completely withered))
- R: persian speedwell, herbicidal effect grade (persian speedwell; 320 g/ha): 5 (Herbicidal rate of 90% or more (almost completely withered))
- Herbicidal effect, B: Japanese bulrush (Japanese bulrush; [7]): 5 (Herbicidal rate of 90% or more (almost completely withered))
- F: southern crabgrass, herbicidal effect grade (southern crabgrass [6]; 320 g/ha): 5 (Herbicidal rate of 90% or more (almost completely withered))

Compound: CCOc1cc(F)ccc1-c1sc2cc(Cl)ccc2c1-c1c(O)c(C)nn(C)c1=O [3-045]
- herbicidal effect rating, C: oval-leafed pondweed (oval-leafed pondweed; AAH 320 g/ha): 0 (Herbicidal rate of 5% or less (almost no effect))
- herbicidal effect on barnyard grass (H) (barnyard grass [1]; 320 g/ha): 5 (Herbicidal rate of 90% or more (almost completely withered))
- herbicidal effect rating, A: late watergrass (late watergrass [2]; AAH 320 g/ha): 2 (Herbicidal rate of 20% or more and less than 40%)
- I: wild oat, herbicidal effect grade (wild oat; 320 g/ha): 5 (Herbicidal rate of 90% or more (almost completely withered))
- J: blackgrass, herbicidal effect grade (blackgrass; [7]): 3 (Herbicidal rate of 40% or more and less than 70%)
- O: lambsquarters, herbicidal effect grade (lambsquarters; 320 g/ha): 3 (Herbicidal rate of 40% or more and less than 70%)
- Q: false cleavers, herbicidal effect grade (false cleavers; [7]): 4 (Herbicidal rate of 70% or more and less than 90%)
- H: barnyard grass, herbicidal effect grade (barnyard grass [3]; [7]): 5 (Herbicidal rate of 90% or more (almost completely withered))
- N: redroot pigweed, herbicidal effect grade (redroot pigweed; 320 g/ha): 4 (Herbicidal rate of 70% or more and less than 90%)
- G: green foxtail, herbicidal effect grade (green foxtail; 320 g/ha): 5 (Herbicidal rate of 90% or more (almost completely withered))
- P: chickweed, herbicidal effect grade (chickweed; [7]): 4 (Herbicidal rate of 70% or more and less than 90%)
- F: southern crabgrass, herbicidal effect grade (southern crabgrass [4]; [7]): 5 (Herbicidal rate of 90% or more (almost completely withered))
- L: windgrass, herbicidal effect grade (windgrass; 320 g/ha): 5 (Herbicidal rate of 90% or more (almost completely withered))
- Herbicidal effect, A: late watergrass (late watergrass [5]; [7]): 2 (Herbicidal rate of 20% or more and less than 40%)
- R: persian speedwell, herbicidal effect grade (persian speedwell; 320 g/ha): 5 (Herbicidal rate of 90% or more (almost completely withered))
- Herbicidal effect, B: Japanese bulrush (Japanese bulrush; [7]): 1 (Herbicidal rate of 5% or more and less than 20%)
- F: southern crabgrass, herbicidal effect grade (southern crabgrass [6]; 320 g/ha): 5 (Herbicidal rate of 90% or more (almost completely withered))

Compound: CCCC(=O)Oc1c(C)nn(C)c(=O)c1-c1c(-c2ccccc2OC)sc2cc(C)ccc12 [3-050]
- herbicidal effect rating, C: oval-leafed pondweed (oval-leafed pondweed; AAH 224 g/ha): 3 (Herbicidal rate of 40% or more and less than 70%)
- herbicidal effect on barnyard grass (H) (barnyard grass [1]; 224 g/ha): 4 (Herbicidal rate of 70% or more and less than 90%)
- herbicidal effect rating, A: late watergrass (late watergrass [2]; AAH 224 g/ha): 0 (Herbicidal rate of 5% or less (almost no effect))
- I: wild oat, herbicidal effect grade (wild oat; 224 g/ha): 4 (Herbicidal rate of 70% or more and less than 90%)
- J: blackgrass, herbicidal effect grade (blackgrass; [8]): 0 (Herbicidal rate of 5% or less (almost no effect))
- O: lambsquarters, herbicidal effect grade (lambsquarters; 224 g/ha): 0 (Herbicidal rate of 5% or less (almost no effect))
- Q: false cleavers, herbicidal effect grade (false cleavers; [8]): 0 (Herbicidal rate of 5% or less (almost no effect))
- H: barnyard grass, herbicidal effect grade (barnyard grass [3]; [8]): 0 (Herbicidal rate of 5% or less (almost no effect))
- N: redroot pigweed, herbicidal effect grade (redroot pigweed; 224 g/ha): 4 (Herbicidal rate of 70% or more and less than 90%)
- G: green foxtail, herbicidal effect grade (green foxtail; 224 g/ha): 3 (Herbicidal rate of 40% or more and less than 70%)
- P: chickweed, herbicidal effect grade (chickweed; [8]): 3 (Herbicidal rate of 40% or more and less than 70%)
- F: southern crabgrass, herbicidal effect grade (southern crabgrass [4]; [8]): 0 (Herbicidal rate of 5% or less (almost no effect))
- L: windgrass, herbicidal effect grade (windgrass; 224 g/ha): 4 (Herbicidal rate of 70% or more and less than 90%)
- Herbicidal effect, A: late watergrass (late watergrass [5]; [8]): 2 (Herbicidal rate of 20% or more and less than 40%)
- R: persian speedwell, herbicidal effect grade (persian speedwell; 224 g/ha): 5 (Herbicidal rate of 90% or more (almost completely withered))
- Herbicidal effect, B: Japanese bulrush (Japanese bulrush; [8]): 0 (Herbicidal rate of 5% or less (almost no effect))
- F: southern crabgrass, herbicidal effect grade (southern crabgrass [6]; 224 g/ha): 4 (Herbicidal rate of 70% or more and less than 90%)

Compound: CCCC(=O)Oc1c(C)nn(C)c(=O)c1-c1c(-c2ccccc2OCC)sc2cc(C)ccc12 [3-054]
- herbicidal effect rating, C: oval-leafed pondweed (oval-leafed pondweed; AAH 304 g/ha): 3 (Herbicidal rate of 40% or more and less than 70%)
- herbicidal effect on barnyard grass (H) (barnyard grass [1]; 304 g/ha): 5 (Herbicidal rate of 90% or more (almost completely withered))
- herbicidal effect rating, A: late watergrass (late watergrass [2]; AAH 304 g/ha): 2 (Herbicidal rate of 20% or more and less than 40%)
- I: wild oat, herbicidal effect grade (wild oat; 304 g/ha): 5 (Herbicidal rate of 90% or more (almost completely withered))
- J: blackgrass, herbicidal effect grade (blackgrass; [9]): 3 (Herbicidal rate of 40% or more and less than 70%)
- O: lambsquarters, herbicidal effect grade (lambsquarters; 304 g/ha): 4 (Herbicidal rate of 70% or more and less than 90%)
- Q: false cleavers, herbicidal effect grade (false cleavers; [9]): 2 (Herbicidal rate of 20% or more and less than 40%)
- H: barnyard grass, herbicidal effect grade (barnyard grass [3]; [9]): 0 (Herbicidal rate of 5% or less (almost no effect))
- N: redroot pigweed, herbicidal effect grade (redroot pigweed; 304 g/ha): 5 (Herbicidal rate of 90% or more (almost completely withered))
- G: green foxtail, herbicidal effect grade (green foxtail; 304 g/ha): 5 (Herbicidal rate of 90% or more (almost completely withered))
- P: chickweed, herbicidal effect grade (chickweed; [9]): 3 (Herbicidal rate of 40% or more and less than 70%)
- F: southern crabgrass, herbicidal effect grade (southern crabgrass [4]; [9]): 4 (Herbicidal rate of 70% or more and less than 90%)
- L: windgrass, herbicidal effect grade (windgrass; 304 g/ha): 4 (Herbicidal rate of 70% or more and less than 90%)
- Herbicidal effect, A: late watergrass (late watergrass [5]; [9]): 5 (Herbicidal rate of 90% or more (almost completely withered))
- R: persian speedwell, herbicidal effect grade (persian speedwell; 304 g/ha): 5 (Herbicidal rate of 90% or more (almost completely withered))
- Herbicidal effect, B: Japanese bulrush (Japanese bulrush; [9]): 5 (Herbicidal rate of 90% or more (almost completely withered))
- F: southern crabgrass, herbicidal effect grade (southern crabgrass [6]; 304 g/ha): 5 (Herbicidal rate of 90% or more (almost completely withered))

From patent publication US20230085307A1, “PYRIDAZINONE COMPOUND AND HERBICIDE” (NISSAN CHEMICAL CORPORATION, priority 2019, published 2023)
